We go through 4 molecules from ChEMBL document CHEMBL4739711, “Method of inhibiting DYRK1B” (2020).

SMILES strings stand for the structures. Activity calls are given as the source filed them. The calls are words filed in the database; no cut-off is given here.

For data set [1], the target named is Dual specificity tyrosine-phosphorylation-regulated kinase 1B (Homo sapiens) (UniProt Q9Y463). As to the kind of experiment: Inhibition of DYRK1B in SAG stimulated human Daoy cells assessed as prevention of Hedgehog signaling by measuring reduction of GLI expression at 1 to 5 uM by Western blot analysis. The format is tissue-based. Particulars: dose 1-5 µM.
Chain of Dual specificity tyrosine-phosphorylation-regulated kinase 1B (Homo sapiens) (Q9Y463 whole entry, looked up): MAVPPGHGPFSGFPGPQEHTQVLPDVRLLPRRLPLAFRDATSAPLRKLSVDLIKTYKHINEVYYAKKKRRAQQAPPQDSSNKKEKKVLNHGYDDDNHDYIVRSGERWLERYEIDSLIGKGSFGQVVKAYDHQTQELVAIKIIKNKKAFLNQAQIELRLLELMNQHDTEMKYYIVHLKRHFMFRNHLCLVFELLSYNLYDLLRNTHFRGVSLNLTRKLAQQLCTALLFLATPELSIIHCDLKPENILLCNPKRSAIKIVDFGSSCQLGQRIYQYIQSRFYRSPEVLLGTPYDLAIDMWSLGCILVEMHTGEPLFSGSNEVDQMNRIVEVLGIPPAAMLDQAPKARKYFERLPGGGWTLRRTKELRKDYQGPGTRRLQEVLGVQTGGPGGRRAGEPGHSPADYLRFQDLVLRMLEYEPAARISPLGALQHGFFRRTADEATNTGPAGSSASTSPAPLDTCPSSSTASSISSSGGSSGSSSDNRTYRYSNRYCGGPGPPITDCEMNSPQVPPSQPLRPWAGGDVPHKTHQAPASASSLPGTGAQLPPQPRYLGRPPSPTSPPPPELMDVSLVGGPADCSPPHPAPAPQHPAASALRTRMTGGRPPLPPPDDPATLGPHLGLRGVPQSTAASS
The target is the same in data set [2]. Description: Inhibition of DYRK1B in SAG stimulated human Daoy cells assessed as prevention of Hedgehog signaling by measuring reduction of GLI expression at 10 to 25 uM by Western blot analysis. The format is tissue-based. The conditions noted are these: dose 10-25 µM.
The target is the same in data set [3]. Description: Inhibition of DYRK1B in SAG stimulated human Daoy cells assessed as prevention of Hedgehog signaling by measuring reduction of PTCH1 expression at 10 to 25 uM by Western blot analysis. The conditions noted are these: dose 10-25 µM. The format is tissue-based. A general note: In western blotting, separated proteins are transferred to a membrane and probed.

The target in data set [4] is Protein smoothened (Mus musculus) (UniProt P56726). As to the kind of experiment: Inhibition of SMO in SAG stimulated mouse BCC cells assessed as prevention of Hedgehog signaling by measuring reduction of GLI expression at 10 to 25 uM by Western blot analysis. The format is cell-based. Particulars: dose 10-25 µM.
Chain of Protein smoothened (Mus musculus) (P56726 whole entry): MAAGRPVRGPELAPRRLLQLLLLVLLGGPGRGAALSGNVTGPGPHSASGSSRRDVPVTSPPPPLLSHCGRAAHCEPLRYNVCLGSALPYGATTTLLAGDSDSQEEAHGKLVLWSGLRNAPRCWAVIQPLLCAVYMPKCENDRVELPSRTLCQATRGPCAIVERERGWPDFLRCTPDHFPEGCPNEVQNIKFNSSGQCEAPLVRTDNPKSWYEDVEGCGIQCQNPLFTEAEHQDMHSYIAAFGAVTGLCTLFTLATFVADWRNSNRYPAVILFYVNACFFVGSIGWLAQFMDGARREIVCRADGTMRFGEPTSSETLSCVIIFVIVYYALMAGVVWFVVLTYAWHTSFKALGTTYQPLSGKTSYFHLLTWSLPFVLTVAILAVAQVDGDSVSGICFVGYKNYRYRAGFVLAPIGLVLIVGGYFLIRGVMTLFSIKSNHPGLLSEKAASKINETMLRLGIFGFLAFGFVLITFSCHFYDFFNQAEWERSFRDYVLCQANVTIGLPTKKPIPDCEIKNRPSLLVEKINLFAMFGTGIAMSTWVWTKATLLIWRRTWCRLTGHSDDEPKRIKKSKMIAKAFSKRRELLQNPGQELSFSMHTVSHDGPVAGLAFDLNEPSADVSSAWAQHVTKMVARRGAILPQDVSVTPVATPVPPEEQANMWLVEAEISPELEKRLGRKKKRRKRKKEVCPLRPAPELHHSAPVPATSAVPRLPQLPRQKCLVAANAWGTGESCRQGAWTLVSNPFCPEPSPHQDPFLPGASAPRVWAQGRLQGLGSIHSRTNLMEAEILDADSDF
Data set [5] has as its target Dual specificity tyrosine-phosphorylation-regulated kinase 1B (Homo sapiens) (UniProt Q9Y463). Description: Inhibition of DYRK1B in human A673 cells assessed as prevention of Hedgehog signaling by measuring reduction of GLI expression at 10 to 25 uM by Western blot analysis. Type of data set: cell-based. Particulars: dose 10-25 µM.
For data set [6] the target is unchanged. Description: Inhibition of DYRK1B in human PANC-1 cell assessed as prevention of Hedgehog signaling by measuring reduction of GLI expression at 10 to 25 uM by Western blot analysis. Type of data set: tissue-based. Particulars: dose 10-25 µM.
Data set [7] concerns PANC-1. Description: Inhibition of colony formation in human PANC-1 cells at 10 to 25 uM. Type of data set: functional, cell-based. The conditions noted are these: dose 10-25 µM.
Data set [8] concerns PANC-1. Description: Toxicity in human PANC-1 cells assessed as effect on cell viability at 10 to 25 uM. The format is cell-based. The conditions noted are these: panc-1, 25 µM, dose 10-25 µM.
Data set [9] concerns PANC-1. As to the kind of experiment: Inhibition of colony formation in human PANC-1 cells at 0.5 uM. The format is functional, cell-based.
Data set [10] concerns PANC-1. Description: Toxicity in human PANC-1 cells assessed as effect on cell viability at 0.5 uM. The format is cell-based. The conditions noted are these: panc-1, 0.5 µM.
The target in data set [11] is T1, Zinc finger protein GLI1 (Homo sapiens) (UniProt P08151).
T1 sequence (whole entry): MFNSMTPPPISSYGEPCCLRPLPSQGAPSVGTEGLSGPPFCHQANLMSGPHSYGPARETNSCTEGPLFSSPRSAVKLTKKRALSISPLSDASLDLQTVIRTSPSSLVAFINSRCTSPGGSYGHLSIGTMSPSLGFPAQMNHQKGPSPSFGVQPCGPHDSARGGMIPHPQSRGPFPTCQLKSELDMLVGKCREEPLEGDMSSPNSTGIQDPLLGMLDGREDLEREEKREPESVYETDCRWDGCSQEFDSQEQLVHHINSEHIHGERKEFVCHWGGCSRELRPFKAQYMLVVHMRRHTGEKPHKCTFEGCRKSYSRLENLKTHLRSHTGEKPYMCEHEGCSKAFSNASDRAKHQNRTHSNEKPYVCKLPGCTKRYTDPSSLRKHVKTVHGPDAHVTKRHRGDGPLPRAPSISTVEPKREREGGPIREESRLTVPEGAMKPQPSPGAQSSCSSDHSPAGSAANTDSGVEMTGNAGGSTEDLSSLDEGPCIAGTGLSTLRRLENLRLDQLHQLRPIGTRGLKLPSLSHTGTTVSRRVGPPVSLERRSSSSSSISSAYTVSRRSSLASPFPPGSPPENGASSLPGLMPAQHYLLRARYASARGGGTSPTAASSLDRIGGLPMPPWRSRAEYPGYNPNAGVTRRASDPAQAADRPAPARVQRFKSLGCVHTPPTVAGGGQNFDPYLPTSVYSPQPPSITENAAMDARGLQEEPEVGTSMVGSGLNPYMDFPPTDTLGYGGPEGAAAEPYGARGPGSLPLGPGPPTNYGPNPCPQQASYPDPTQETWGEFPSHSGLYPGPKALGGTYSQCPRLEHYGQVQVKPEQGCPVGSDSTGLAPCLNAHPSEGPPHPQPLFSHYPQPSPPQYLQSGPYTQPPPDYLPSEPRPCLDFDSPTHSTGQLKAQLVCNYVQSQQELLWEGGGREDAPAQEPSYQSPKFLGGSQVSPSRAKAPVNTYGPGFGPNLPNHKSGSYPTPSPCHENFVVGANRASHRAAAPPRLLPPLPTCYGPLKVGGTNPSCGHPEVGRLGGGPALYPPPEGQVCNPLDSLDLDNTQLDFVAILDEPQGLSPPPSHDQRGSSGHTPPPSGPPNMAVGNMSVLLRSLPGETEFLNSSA
Description: Inhibition of GLI in SAG stimulated human Daoy cells assessed as prevention of Hedgehog signaling by measuring reduction of GLI expression at 20 uM in presence of siRNA for SUFU by Western blot analysis. The format is tissue-based.

The target in data set [12] is T1, Zinc finger protein GLI1 (Homo sapiens). As to the kind of experiment: Inhibition of GLI in SAG stimulated human Daoy cells assessed as prevention of Hedgehog signaling by measuring reduction of PTCH1 expression at 20 uM in presence of siRNA for SUFU by Western blot analysis. The format is tissue-based.

With `FC(F)(F)c1ccc2[nH]c(Nc3ncccn3)nc2c1`, in data set [1], the inhibition entry is “Active”.

For `COc1ccc2c(c1)[nH]c1c(C)nccc12` [HARMINE], the inhibition result (in data set [2]; in [3]; in data set [4]; in [5]; in data set [6]; in the data set with PANC-1 [7]) was “Active” in each case. For the same molecule, the Activity result with PANC-1 [8] is “Non-Toxic”.

`CS(=O)(=O)c1ccc(C(=O)Nc2ccc(Cl)c(-c3ccccn3)c2)c(Cl)c1` [VISMODEGIB]: the inhibition entry in the data set on PANC-1 [9] is “inactive”. The Activity entry in the data set on PANC-1 [10] was “Non-Toxic”.

Regarding `CN(C)c1ccccc1CN1CCCN(Cc2ccccc2N(C)C)C1c1ccncc1`, the inhibition entry in data set [11] and in data set [12] was “Active” throughout.
